Source: patent US20250257061A1, “COMPOSITIONS AND METHODS FOR TREATING CANCER AND REDUCING WNT MEDIATED EFFECTS” (StemSynergy Therapeutics, Inc., priority 2024, published 2025)
Read-outs that look alike come from different tables or passages of the source.

Columns and labels:
[1] = system: Wnt-dependent HCT116 cell line; test: Viability assay using Wnt-dependent HCT116 cell line (Cell Titer Glo); assay type: cell-based
Procedure: All compounds were tested using the human cell line HEK STF293. This cell line carries a Wnt reporter (TCF/LEF1 promoter), which drives expression of the firefly luciferase protein. The level of Wnt activity is directly correlated with the level of luciferase activity (determined using a simple assay). Compounds that inhibit Wnt signaling by reducing luciferase activity in these two cell lines are further tested biochemically. […] Compounds were further tested in a Viability assay using Wnt-dependent HCT116 cell line. HEK293 cells were seeded in a 6-well plate at approximately 8.0×10^5 cells (2 mL per well). On the first day, Wnt3a-conditioned media (1:1) and compounds (1:100) were added to the plated cells. The final concentrations of compounds were 1 μM, 500 nM, and 100 nM. Vehicle (DMSO) and a Wnt3a-conditioned media plus Vehicle samples were also prepared as controls. Lysates were collected (with non-denaturing lysis buffer) after 24 hours incubation, and protein concentrations determined by Bradford Assay. Immunoblotting with an anti-beta-catenin antibody (equivalent amounts of protein/lane for each condition) were subsequently performed to determine beta-catenin levels. HCT116 cells were seeded at 2,500 cells/well in a 96-well dish (Volume: 100 μL/well). On the second day, the 10 mM stock solution of each test compound was thawed at room temperature. Dilutions of the test compound were prepared in DMSO in a V-bottom 96-well plate. The stock compound solution, DMSO-diluted compound solutions, and DMSO were further diluted 500-fold in cell culture media, and 100 μL of the compound- or DMSO-containing cell culture media was added to each well of the cells. […] The final DMSO concentration was 0.1% in all wells. On the fifth day, 150 μL of media was removed from each well. 50 μL/well Cell Titer Glo reagent (Promega) was added to each well. The plate was shaken at 130 rpm for 15 minutes at room temperature, and the cell viability was determined using a luminescence plate reader. All compounds were tested using the human cell line HEK STF293. This cell line carries a Wnt reporter (TCF/LEF1 promoter), which drives expression of the firefly luciferase protein. The level of Wnt activity is directly correlated with the level of luciferase activity (determined using a simple assay). Compounds that inhibit Wnt signaling by reducing luciferase activity in these two cell lines are further tested biochemically. […] Compounds were further tested in a Viability assay using Wnt-dependent HCT116 cell line. HEK293 cells were seeded in a 6-well plate at approximately 8.0×10^5 cells (2 mL per well). On the first day, Wnt3a-conditioned media (1:1) and compounds (1:100) were added to the plated cells. The final concentrations of compounds were 1 μM, 500 nM, and 100 nM. Vehicle (DMSO) and a Wnt3a-conditioned media plus Vehicle samples were also prepared as controls. Lysates were collected (with non-denaturing lysis buffer) after 24 hours incubation, and protein concentrations determined by Bradford Assay. Immunoblotting with an anti-beta-catenin antibody (equivalent amounts of protein/lane for each condition) were subsequently performed to determine beta-catenin levels. HCT116 cells were seeded at 2,500 cells/well in a 96-well dish (Volume: 100 μL/well). On the second day, the 10 mM stock solution of each test compound was thawed at room temperature. Dilutions of the test compound were prepared in DMSO in a V-bottom 96-well plate. The stock compound solution, DMSO-diluted compound solutions, and DMSO were further diluted 500-fold in cell culture media, and 100 μL of the compound- or DMSO-containing cell culture media was added to each well of the cells. […] The final DMSO concentration was 0.1% in all wells. On the fifth day, 150 μL of media was removed from each well. 50 μL/well Cell Titer Glo reagent (Promega) was added to each well. The plate was shaken at 130 rpm for 15 minutes at room temperature, and the cell viability was determined using a luminescence plate reader. […]

[2] = system: Wnt reporter (TCF/LEF1 promoter); test: HEK STF293 Wnt reporter (TOPFlash) luciferase assay, Steady Glo normalised to Cell Titer; assay type: cell-based, human
Procedure: All compounds were tested using the human cell line HEK STF293. This cell line carries a Wnt reporter (TCF/LEF1 promoter), which drives expression of the firefly luciferase protein. The level of Wnt activity is directly correlated with the level of luciferase activity (determined using a simple assay). Compounds that inhibit Wnt signaling by reducing luciferase activity in these two cell lines are further tested biochemically. […] Compounds were further tested in a Viability assay using Wnt-dependent HCT116 cell line. Compounds were prepared as 10 mM stocks for each compound in DMSO. Dilutions were prepared in a 96-well plate in DMSO. The stock dilutions are as follows: 10 mM, 1 mM, 100 μM, 10 μM, 100 nM, and 10 nM. Plates were sealed and stored at −20° C. […] On the first day, Wnt3a-conditioned media (1:1) were added along with diluted compounds (1:100). […] The final concentrations should therefore be 100 μM, 10 μM, 1 μM, 100 nM, 10 nM, and 1 nM. On the second day, the media was removed and 75 μL of Passive Lysis Buffer (Promega) is added to each well. The plate was shaken at 130 rpm for 15 minutes. For the Steady Glo assay, 45 μL of the lysis was removed and added to a white 96-well plate containing 45 μL/well of Steady Glo solution (Promega). For the Cell Titer assay, 25 μL of the lysis was transferred to a white 96-well plate containing 25 μL/well of Cell Titer solution (Promega). Both Steady Glo and Cell Titer assays were read with a luminescence plate reader. When determining EC50, the Steady Glo values were divided by the Cell Titer values to normalize for cell number. All compounds were tested using the human cell line HEK STF293. This cell line carries a Wnt reporter (TCF/LEF1 promoter), which drives expression of the firefly luciferase protein. The level of Wnt activity is directly correlated with the level of luciferase activity (determined using a simple assay). Compounds that inhibit Wnt signaling by reducing luciferase activity in these two cell lines are further tested biochemically. […] Compounds were further tested in a Viability assay using Wnt-dependent HCT116 cell line. Compounds were prepared as 10 mM stocks for each compound in DMSO. Dilutions were prepared in a 96-well plate in DMSO. The stock dilutions are as follows: 10 mM, 1 mM, 100 μM, 10 μM, 100 nM, and 10 nM. Plates were sealed and stored at −20° C. […] On the first day, Wnt3a-conditioned media (1:1) were added along with diluted compounds (1:100). […] The final concentrations should therefore be 100 μM, 10 μM, 1 μM, 100 nM, 10 nM, and 1 nM. On the second day, the media was removed and 75 μL of Passive Lysis Buffer (Promega) is added to each well. The plate was shaken at 130 rpm for 15 minutes. For the Steady Glo assay, 45 μL of the lysis was removed and added to a white 96-well plate containing 45 μL/well of Steady Glo solution (Promega). For the Cell Titer assay, 25 μL of the lysis was transferred to a white 96-well plate containing 25 μL/well of Cell Titer solution (Promega). Both Steady Glo and Cell Titer assays were read with a luminescence plate reader. When determining EC50, the Steady Glo values were divided by the Cell Titer values to normalize for cell number. All compounds were tested using the human cell line HEK STF293. This cell line carries a Wnt reporter (TCF/LEF1 promoter), which drives expression of the firefly luciferase protein. The level of Wnt activity is directly correlated with the level of luciferase activity (determined using a simple assay). Compounds that inhibit Wnt signaling by reducing luciferase activity in these two cell lines are further tested biochemically. […] Compounds were further tested in a Viability assay using Wnt-dependent HCT116 cell line. Compounds were prepared as 10 mM stocks for each compound in DMSO. Dilutions were prepared in a 96-well plate in DMSO. The stock dilutions are as follows: 10 mM, 1 mM, 100 μM, 10 μM, 100 nM, and 10 nM. Plates were sealed and stored at −20° C. […]

[3] = Homo sapiens, HCT-116, Examples for Formulae (IV), (V), (VI), and (VII), HCT116 cells, read-out: Viability IC50 category
[4] = Homo sapiens, STF/293, Examples for Formulae (IV), (V), (VI), and (VII), HEK STF293 cells, Wnt3a-conditioned media, read-out: TOPFlash IC50 category
[5] = Homo sapiens, HCT-116, Examples for Formulae (I), (II), and (III), HCT116 cells, read-out: Viability IC50 category
[6] = Homo sapiens, STF/293, Examples for Formulae (I), (II), and (III), HEK STF293 cells, Wnt3a-conditioned media, read-out: TOPFlash IC50 category
[7] = Examples for Formulae (IV), (V), (VI), and (VII), HCT116 cells, read-out: Viability IC50 category
[8] = Examples for Formulae (IV), (V), (VI), and (VII), HEK STF293 cells, Wnt3a-conditioned media, read-out: TOPFlash IC50 category
[9] = Homo sapiens, HCT-116, Examples for Formulae (VIII), (IX), and (X), HCT116 cells, read-out: Viability IC50 category
[10] = Homo sapiens, STF/293, Examples for Formulae (VIII), (IX), and (X), HEK STF293 cells, Wnt3a-conditioned media, read-out: TOPFlash IC50 category

| Compound | IC50 [1, 3] | IC50 [2, 4] | IC50 [1, 7] | IC50 [2, 8] | further results |
| --- | --- | --- | --- | --- | --- |
| CN(C(=O)c1ccc(F)cc1)c1nc(-c2ccc(F)cc2)c(C(=O)Nc2nc(-c3ccccn3)cs2)o1 [Example 76] | < 200 nM | < 200 nM | – | – | – |
| COc1ccccc1-c1noc(C)c1C(=O)Nc1nc(-c2ccccn2)cs1 [Example 21] | – | – | – | – | IC50 ([1]; Homo sapiens, HCT-116, read-out: Viability IC50 category): 1000 to 10000 nM; IC50 ([2]; Homo sapiens, STF/293, read-out: TOPFlash IC50 category): 1000 to 10000 nM |
| Cc1onc(-c2ccccc2F)c1C(=O)Nc1nc(-c2ccccn2)cs1 [Example 7] | 200 to 500 nM | 200 to 500 nM | – | – | – |
| Cn1nc(C(=O)Nc2nc(-c3ccccn3)cs2)c(-c2ccc(F)cc2)n1 [Example 19] | – | – | – | – | IC50 [1, 5]: 200 to 500 nM; IC50 [2, 6]: 200 to 500 nM |
| Cc1onc(-c2ccc(F)cc2)c1C(=O)Nc1nc(-c2ccccn2)cs1 [Example 4] | 200 to 500 nM | < 200 nM | – | – | – |
| Cc1nn(-c2ccc(F)cc2F)c(C)c1C(=O)Nc1nc(-c2ccccn2)cs1 [Example 8] | – | – | – | – | IC50 [1, 5]: 500 to 1000 nM; IC50 [2, 6]: 500 to 1000 nM |
| Cc1nc(-c2ccc(C#N)cc2)c(C(=O)Nc2nc(-c3ccccn3)cs2)o1 [Example 30] | – | – | 200 to 500 nM | < 200 nM | – |
| Cc1nn(Cc2ccc(F)cc2)c(C)c1C(=O)Nc1nc(-c2ccccn2)cs1 [Example 7] | – | – | – | – | IC50 [1, 5]: 500 to 1000 nM; IC50 [2, 6]: 500 to 1000 nM |
| Cc1onc(-c2ccc(C(F)(F)F)c(F)c2)c1C(=O)Nc1nc(-c2ccccn2)cs1 [Example 62] | – | – | < 200 nM | 200 to 500 nM | – |
| CCc1nc(-c2ccc(F)cc2)c(C(=O)Nc2nc(-c3ccccn3)cs2)o1 [Example 13] | < 200 nM | < 200 nM | – | – | – |
| CN(c1nc(-c2ccc(S(C)(=O)=O)cc2)c(C(=O)Nc2nc(-c3ccccn3)cs2)o1)S(=O)(=O)c1ccc(F)cc1 [Example 74] | – | – | < 200 nM | < 200 nM | – |
| O=C(Nc1nc(-c2ccccn2)cs1)c1oc(C(F)F)nc1-c1ccc(F)cc1 [Example 33] | – | – | 200 to 500 nM | < 200 nM | – |
| CS(=O)(=O)c1cccc(-c2ncoc2C(=O)Nc2nc(-c3ccccn3)cs2)c1 [Example 48] | – | – | 200 to 500 nM | 500 to 1000 nM | – |
| O=C(Nc1nc(-c2ccccn2)cs1)c1ccc(=O)n(-c2ccccc2F)c1 [Example 3] | – | – | – | – | IC50 [1, 9]: 500 to 1000 nM; IC50 [2, 10]: 200 to 500 nM |
| C#Cc1ccc(-c2nc(C)oc2C(=O)Nc2nc(-c3ccccn3)cs2)cc1 [Example 68] | – | – | < 200 nM | < 200 nM | – |
| CN(c1nc(-c2ccc(F)cc2)c(C(=O)Nc2nc(-c3ccccn3)cs2)o1)S(=O)(=O)c1ccc(C(F)(F)F)cc1 [Example 61] | – | – | < 200 nM | < 200 nM | – |
| Cc1nc(-c2ccc(-c3nnc[nH]3)cc2)c(C(=O)Nc2nc(-c3ccccn3)cs2)o1 [Example 67] | 200 to 500 nM | 200 to 500 nM | – | – | – |
| Cc1nc(N(C)S(=O)(=O)c2ccccc2Cl)oc1C(=O)Nc1nc(-c2ccccn2)cs1 [Example 49] | 500 to 1000 nM | 200 to 500 nM | – | – | – |
| CN(c1nc(C(F)(F)F)c(C(=O)Nc2nc(-c3ccccn3)cs2)o1)S(=O)(=O)c1ccc(C(F)(F)F)cc1 [Example 55] | 200 to 500 nM | 200 to 500 nM | – | – | – |
| O=C(Nc1nc(-c2ccccn2)cs1)c1cccnc1Oc1ccc(C(F)(F)F)cc1 [Example 13] | – | – | – | – | IC50 [1, 9]: 500 to 1000 nM; IC50 [2, 10]: 200 to 500 nM |
| CC(C)CS(=O)(=O)N(C)c1nc(-c2ccc(F)cc2)c(C(=O)Nc2nc(-c3ccccn3)cs2)o1 [Example 60] | < 200 nM | < 200 nM | – | – | – |
| Cc1nn(Cc2ccc(Cl)cc2Cl)c(Cl)c1C(=O)Nc1nc(-c2ccccn2)cs1 [Example 13] | – | – | – | – | IC50 [1, 5]: 500 to 1000 nM; IC50 [2, 6]: 500 to 1000 nM |
